Holding throughout (assay type): biochemical
One test has as its system α-Amylase. The test is described as follows: Determination of α-Amylase activity with reagent paper (Beispiel 21). As to conditions: filter paper soaked with substrate in Citratpuffer pH 6; sample with amylase plus α- and ß-Glucosidase; after a few minutes. From the text: Bestimmung der α-Amylase-Aktivität
Filterpapier wird mit Resorufin-maltoheptaosid (hergestellt gemäß Beispiel 17), gelöst in Citratpuffer, pH 6, getränkt. Das so ernaltene Reagenzpapier wird nacheinander mit der d-Amylase enthaltenden Probe sowie mit a- und ß-Glucosidase versetzt.
Mit Hilfe von Proben mit bekannter d-Amylase-Konzentration läßt sicn eine Eichkurve ermitteln, anhand derer der uhbekannte d-Amylase-Genalt einer Probe bestimmt werden Kann.

Another test deals with ß-D-Galaktosidase (Escherichia coli, UniProt P00722). The experiment in a line: Kinetics of the enzymatic hydrolysis (Michaelis-Menten). The text has this: Bei der Synthese der Glycoside der Resorufin-Derivate der allgemeinen Formel II entstehen nicht-fluoreszierende Verbindungen, aus denen durch enzymatische Spaltung mit Hilfe der entsprechenden Glycosidasen wieder die fluoreszierenden Resorufin-Derivate freigesetzt werden. Die erfindungsgemäßen fluorogenen Resorufin-nerivate besitzen im Vergleich zu den bisher bekannten Glycosiden anderer chromogener bzw. fluorogener Gruppen sehr vorteilhafte Eigenschaften. Als monosubstituierte Derivate weisen sie eine Kinetik der enzymatischen Hydrolyse auf, die sehr einfach durch die Michaelis-Menten-Beziehung beschrieben werden kann. Für das Resorufin-ß-D-galactopyranosid gilt beispielsweise eine Michaelis-Konstante KM = 0,38 mmol/1. Die Hemmung dieser Hydrolyse durch das natürliche Substrat Lactose ist kompetitiv, so daß für bestimmte Untersuchungen der spezifische Umsatz von Glycosiden der Resorufin-Derivate durch Zugabe von natürlichen Glycosiden, wie Lactose im Falle der ß-D-Galaktosidase, definiert und reversibel verändert werden kann.
ß-D-Galaktosidase, sequence (P00722 2-1024): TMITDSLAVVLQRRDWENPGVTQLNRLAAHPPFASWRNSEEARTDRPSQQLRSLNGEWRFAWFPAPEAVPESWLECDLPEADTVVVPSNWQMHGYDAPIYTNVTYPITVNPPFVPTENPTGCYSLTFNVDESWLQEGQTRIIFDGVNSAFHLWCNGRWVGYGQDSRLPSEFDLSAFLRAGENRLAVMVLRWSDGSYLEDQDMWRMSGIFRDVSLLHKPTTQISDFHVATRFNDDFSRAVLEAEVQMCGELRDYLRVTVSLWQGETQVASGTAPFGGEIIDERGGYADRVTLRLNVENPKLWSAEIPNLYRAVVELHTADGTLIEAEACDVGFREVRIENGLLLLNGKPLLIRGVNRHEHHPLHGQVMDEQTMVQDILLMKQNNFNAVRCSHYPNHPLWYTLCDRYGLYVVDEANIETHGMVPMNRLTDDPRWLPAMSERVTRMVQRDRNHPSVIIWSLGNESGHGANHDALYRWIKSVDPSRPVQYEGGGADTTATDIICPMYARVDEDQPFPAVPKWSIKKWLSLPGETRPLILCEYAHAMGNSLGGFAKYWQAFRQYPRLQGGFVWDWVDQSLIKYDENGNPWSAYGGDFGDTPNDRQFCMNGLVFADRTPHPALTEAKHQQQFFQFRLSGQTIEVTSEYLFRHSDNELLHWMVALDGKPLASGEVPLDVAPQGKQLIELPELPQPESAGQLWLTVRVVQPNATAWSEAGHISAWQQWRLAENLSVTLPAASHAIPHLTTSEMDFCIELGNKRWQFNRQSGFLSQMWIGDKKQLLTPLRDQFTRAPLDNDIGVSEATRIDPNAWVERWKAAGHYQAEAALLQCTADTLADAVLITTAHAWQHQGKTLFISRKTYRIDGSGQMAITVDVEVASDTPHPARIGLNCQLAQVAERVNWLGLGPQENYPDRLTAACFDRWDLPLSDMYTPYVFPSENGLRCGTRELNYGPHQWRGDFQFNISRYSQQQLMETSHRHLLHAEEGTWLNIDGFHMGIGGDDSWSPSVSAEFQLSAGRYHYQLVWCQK

Another test has as its target T1, freie ß-D-Galactosidase (Escherichia coli, UniProt P00722).
T1 construct: purchased
The experiment in a line: Determination of the activity of free ß-D-Galactosidase, photometric at 578 nm (Beispiel 20). As to conditions: 0,8 mmol/l substrate, 950 ul Reagenslösung + 50 ul Enzymlösung (ca. 0,08 U/ml), 37° C. The method, then:
(§1) Bestimmung der Aktivität freier und konjugierter ß-D-Galactosidase
(§2) Reagenslösung: • In vorstehend beschriebener Pufferlösung werden 0,8 mmol/1 Resorufin-ß-D-galactopyranosid gelöst.
Enzymlösung: • Handelsübliche ß-D-Galactosidase aus Escherichia coli wird in Puffer gelöst. Die Aktivität dieser Lösung beträgt ca. 0,08 U/ml (bezogen auf die Hersteller-Angaben).
(§3) Die Messung erfolgt photometrisch bei 578 nm. 950 ul Reagenslösung werden jeweils in einer 1-cm-Küvette bei 37 °C mit 50 ul Enzymlösung bzw. mit 50 ul Enzym-Konjugat-Lösung vermischt. Als Maß für die Reaktion wird der Extinktionsanstieg pro Zeiteinheit in [mExt/min] ermittelt.

Test [1] deals with ß-D-Galactosidase-Antikörper-Konjugat (Escherichia coli, UniProt P00722). The experiment in a line: Determination of the activity of conjugated ß-D-Galactosidase, photometric at 578 nm (Beispiel 20). As to conditions: 0,8 mmol/l substrate, 950 ul Reagenslösung + 50 ul Enzym-Konjugat-Lösung, 37° C.
ß-D-Galactosidase-Antikörper-Konjugat, sequence (P00722 2-1024): as above
Source text: as §1, §2
Enzym-Konjugat-Lösung: • Verwendet wird ein ß-D-Galactosidase-Antikörper-Präparat. Die Herstellung solcher Enzym-Antikörper-Konjugate ist bekannt. Sie ist beispielsweise in Biochem. Biophys. Acta 612, 40 - 49 (1980) beschrieben. Das Präparat wird in Puffer so verdünnt, daß sich eine mit der oben beschriebenen Enzymlösung ungefähr vergleichbare Aktivität ergibt.
as §3

For test [2], the target named is T2, ß-D-Galactosidase (Escherichia coli, UniProt P00722). The test is described as follows: Detection of ß-D-Galactosidase with an indicator film / test strip (Beispiel 19). As to conditions: test strip containing the substrate, dipped in ß-D-Galactosidase solution; 2 Minuten bei Raumtemperatur. The method, then:
Nachweis von ß-D-Galactosidase mit Hilfe eines Indlkatorfilms
Zu einer nomogenen Masse werden verarbeitet: • 5 ml einer wäßrigen Lösung mit 0,5 M Kaliumphosphat und • 0,05 M Magnesiumchlorid, pH 7,3 . • 0,13 g Natriumalginat • 8 g einer 50 %igen Dispersion von Polyvinylpropionat • 10 g Kieselgel • 12 ml Wasser • 0,4 g Triton X-100 • 50 mg Resorufin-ß-D-galactopyranosid, in 5 ml Methanol gelöst.
Diese Masse wird auf eine 0,1 mm starke Polycarbonatfolie (poKalon, Fa. Lonza) mit einer Spaltbreite von 0,2 mm aufgetragen. Die Beschichtung wird bei 50° C getrocknet und danach in Stücke von 6 auf 6 mm geschnitten. Diese werden mit Hilfe von Klebeband auf eine 400 um starke Polystyrolfolie aufgeklebt.
Die so erhaltenen Teststreifen werden kurze Zeit in die zu prüfende, ß-D-Galactosidase enthaltende Lösung getaucht. […] Mit Hilfe von Testlösungen mit einem bestimmten, bekannten ß-D-Galactosidase-Gehalt kann man eine Farbskala erhalten, anhand derer der unbekannte Genalt an ß-D-Galactosidase in einer Probe ermittelt werden kann.

The target in test [3] is T2, ß-D-Galactosidase. The test is described as follows: Determination of ß-D-Galactosidase activity, photometric at 579 nm (Beispiel 18). Also noted: purchased. As to conditions: Extinktionsanstieg pro Zeiteinheit, 950 ul Reagens + 50 ul Enzymlösung (ca. 0,08 U/ml), 37° C, pH 7,3, substrate 0,8 / 3,5 / 1,0 mmol/l in Reagens 1 / 2 / 3. The text has this: Bestimmung der Aktivität der ß-D-Galactosidase
In der vorstehend beschriebenen Pufferlösung werden 0,8 mmol/1 Resorufin-ß-D-galactopyranosid gelöst.
In der vorstehend beschriebenen Pufferlösung werden 3,5 mmol/1 Resorufin-9-carbonsäure-ß-D-galactopyranosid gelöst.
In der vorstehend beschriebenen Pufferlösung werden 1,0 mmol/1 Resorufin-9-carbonsäuremethylester-ß-D-galactopyranosid gelöst.
Handelsübliche ß-D-Galactosidase aus Escherichia coli wird in der vorstehend genannten Pufferlösung gelöst. Die AKtivität dieser Lösung beträgt ca. 0,08 U/ml (bezogen auf die Hersteller-Angaben).
Die Messung erfolgt photometrisch bei 579 nm.
950 ul Reagens werden in einer 1-cm-Küvette bei 37° C mit 50 ul Enzymlösung vermischt. Als Maß für die Reaktion wird der Extinktionsanstieg pro Zeiteinneit in [mExt/min] ermittelt. Er wird berechnet aus der gemessenen Extinktion durch Division mit der ReaKtionszeit.

By Km is commonly meant the concentration of substrate that gives half-maximal velocity.

T2 sequence (P00722 2-1024): as above
T1 sequence (P00722 2-1024): as above

In the case of `O=c1ccc2nc3ccc(OC4OC(CO)C(OC5OC(CO)C(OC6OC(CO)C(OC7OC(CO)C(OC8OC(CO)C(OC9OC(CO)C(OC%10OC(CO)C(O)C(O)C%10O)C(O)C9O)C(O)C8O)C(O)C7O)C(O)C6O)C(O)C5O)C(O)C4O)cc3oc-2c1` (stereo not drawn) [Beispiel 17, Resorufin-maltoheptaosid], in the test on α-Amylase, the Rotfärbung result is recorded as “deutlich sicntbare Rotfärbung”. As to `OC[C@H]1O[C@@H](O[C@H]2[C@H](O)[C@@H](O)C(O)O[C@@H]2CO)[C@H](O)[C@@H](O)[C@H]1O` (stereo partly drawn) [Lactose, reference compound], on ß-D-Galaktosidase (inhibition of the hydrolysis of Resorufin-ß-D-galactopyranosid by the natural substrate), the “Hemmung dieser Hydrolyse” value is listed as “kompetitiv”.

For the compound `O=c1ccc2nc3ccc(O[C@@H]4O[C@H](CO)[C@H](O)[C@H](O)[C@H]4O)cc3oc-2c1` [Reagens 1, Resorufin-ß-D-galactopyranosid], the Km at ß-D-Galaktosidase (read-out: Michaelis-Konstante KM, enzymatic hydrolysis of the substrate) came to 380 µM. Also, the “Extinktionsanstieg pro Zeiteinheit, Reaktion mit der freien ß-D-Galactosidase” value on freie ß-D-Galactosidase is on record as 85 mExt/min. In test [1], the “Extinktionsanstieg pro Zeiteinheit, Reaktion mit ß-D-Galactosidase-Antikörper-Konjugat” value worked out at 92 mExt/min. In addition, the Reaktionsfarbe result at ß-D-Galactosidase [2] is on record as “rote Reaktionsfarbe”. In addition, the Reaktion on ß-D-Galactosidase [3] is on record as 85 mExt/min. Regarding “Resorufin-1-carbonsäuremethylester [Beispiel 3]”, on ß-D-Galactosidase [3], the Reaktion was 76 mExt/min. Resorufin-ß-D-glucosid [Beispiel 2]: the Reaktion at ß-D-Galactosidase [3] amounted to 46 mExt/min.
